Measurements as given in ChEMBL document CHEMBL4184135, “Waspergillamide A, a Nitro depsi-Tetrapeptide Diketopiperazine from an Australian Mud Dauber Wasp-Associated Aspergillus sp. (CMB-W031)” (J Nat Prod, 2017).
Calls of active or inactive are those of the source.

Legend:
[1] = tested on: Escherichia coli; assay: Antimicrobial activity against Escherichia coli ATCC 25922 assessed as inhibition of microbial growth at 0.125 to 32 ug/mL incubated for 24 hrs by broth micro-dilution method; type: functional, organism-based
[2] = tested on: Pseudomonas aeruginosa; assay: Antimicrobial activity against Pseudomonas aeruginosa ATCC 27853 assessed as inhibition of microbial growth at 0.125 to 32 ug/mL incubated for 24 hrs by broth micro-dilution method; type: functional, organism-based
[3] = tested on: NCI-H460; assay: Cytotoxicity against human NCI-H460 cells assessed as inhibition of cell growth at 10 nM to 30 uM incubated for 72 hrs by MTT assay; type: functional, cell-based
[4] = tested on: Staphylococcus aureus; assay: Antimicrobial activity against Staphylococcus aureus ATCC 25923 assessed as inhibition of microbial growth at 0.125 to 32 ug/mL incubated for 24 hrs by broth micro-dilution method; type: functional, organism-based
[5] = tested on: SW-620; assay: Cytotoxicity against human SW620 cells assessed as inhibition of cell growth at 10 nM to 30 uM incubated for 72 hrs by MTT assay; type: functional, cell-based
[6] = tested on: KB 3-1; assay: Cytotoxicity against human KB-3-1 cells assessed as inhibition of cell growth at 10 nM to 30 uM incubated for 72 hrs by MTT assay; type: functional, cell-based

Measured: growth inhibition (GI)

CC(C)/C=C1\NC(=O)[C@@H](C(C)(C)OC(=O)CNC(=O)c2ccc([N+](=O)[O-])cc2)NC1=O
inactive: [1] | [2] | [3] | [4] | [5] | [6]
